Article PMC8391421, “Identification of Novel Positive Allosteric Modulators of Neurotrophin Receptors for the Treatment of Cognitive Dysfunction” (Cells, 2021)

What was measured:
full-length TrkA-HA = target: T1, full-length TrkA-HA (Homo sapiens, UniProt P04629); experiment: Kinase activity assay of immunoprecipitated HA-tagged full length TrkA (LANCE TR-FRET); type: biochemical; conditions: 5 µM compound, increasing ATP, vs DMSO
T1 construct: Full-length TrkA with a HA-tag (TrkA-HA) fused to the C-terminus; A6 used the anti-HA immunoprecipitate and A14 the 12,000 x g lysate supernatant
Description: A cDNA expression plasmid (pCMV3) with C-terminal-HA tagged human NTRK1 cDNA subcloned between the HindIII and XbaI sites was obtained from SinoBiological (NordicBiosite, Sweden). The human neuroblastoma cell line SH-SY5Y (ATCC, LGC Standards GmbH, Wesel, Germany) was transfected with lipofectamine 3000 and 2 µg of the plasmid. Hygromycin was used for the selection, and expansion of the TrkA-positive clones were performed using 200 µg/mL of Hygromycin. A clone with stable TrkA–HA expression was used for protein expression. Briefly, SH-SY5Y-TrkA-HA cells were seeded in T175cm2 flasks and grown until confluency. A total of 10 flasks were used for each experiment. Cells were detached using Accutase and washed twice with Dulbecco’s PBS through centrifugation. The final cell pellet was resuspended in 2 mL lysis buffer (FNN0011, Thermo Fisher Scientific, Gothenburg, Sweden) supplemented with protease and phosphatase inhibitors and 1 mM DTT. The cell suspension was sonicated with a probe sonicator at 40% amplitude for 2 × 5 s. The resulting homogenate was centrifuged for 10 min at 12,000× g. […] TR-FRET was measured using an excitation wavelength of 340 nm and an emission wavelength of 665 nm with an iD5 plate reader (Molecular Devices, Berkshire, RG41 5TS UK). […]

C57BL/6J mice = experiment: Passive avoidance task; type: in vivo, mouse
Description: The passive avoidance (PA) task is an associate learning paradigm that is based on Pavlovian fear-conditioning and instrumental conditioning and conducted as previously described in male C57BL/6J mice (n = 7–8/group) from Charles River Laboratories, Sulzfeld, Germany. Vehicle or ACD855 (1, 3 or 10 mg/kg), formulated in 20% DMSO in 0.1 M sodium phosphate buffer pH 8.0, was administered daily (Days 1–4) through s.c. injections (4 mL/kg body weight). ACD856 (0.1, 0.3, 1 or 3 mg/kg) was administered by a single s.c. dose on the training day (Day 4). ACD855, ACD856, ANA-12 (0.5 mg/kg, from Sigma Aldrich, Stockholm, Sweden), physostigmine (0.025 mg/kg, from Sigma Aldrich, Stockholm, Sweden), or vehicle was administered 60 min prior to training, except for when addressing the effects on consolidation, in which case, ACD856 was dosed 5 min after the training session on day 4. Moreover, on the training day (Day 4), scopolamine or the NMDA-antagonist MK-801 (both from Sigma Aldrich, Stockholm, Sweden) at 0.3 mg/kg or vehicle was administered once s.c. 30 min prior to training. No compound was administered on the test day (Day 5), except for when addressing effects on retrieval, in which case, ACD856 was dosed 30 min prior to testing on day 5. Retention latencies and time spent in the bright compartment were determined 24 h after training (Day 5).

Wistar rats = experiment: Novel object recognition; type: in vivo, rat; conditions: 1 mg/kg
Description: The novel object recognition model was conducted by Suven Life Sciences Ltd. (Hyderabad, India) using male Wistar rats (n = 12/group). This study was performed in compliance with the requirements and in-house animal care and usage policy of the Institutional Animal Ethics Committee (IAEC). The experiment was conducted over a 5-day period. For the first 3 days, ACD855 or vehicle were administered to the animals. On Day 4, the rats were acclimatized to their respective arenas for 20 min and then returned to their home cages for the administration of ACD855 or vehicle (1 h post habituation phase). On Day 5, the rats were administered vehicle or ACD855 1 h prior to trial, donepezil (1 mg/kg) was injected 30 min prior to trial, and scopolamine (1 mg/kg) was injected 20 min prior to trial. 20 min after scopolamine administration, the rats were subjected to the familiarization phase. The experiment was performed as described by Lueptow. The discriminative index for the drug-treated groups was compared to that of the vehicle group by use of the Kruskal–Wallis test. The discriminative index is the ratio of time spent exploring the novel object divided by the sum of the time spent exploring the novel object and a familiar object in the choice trial.

T1 sequence (P04629 33-796): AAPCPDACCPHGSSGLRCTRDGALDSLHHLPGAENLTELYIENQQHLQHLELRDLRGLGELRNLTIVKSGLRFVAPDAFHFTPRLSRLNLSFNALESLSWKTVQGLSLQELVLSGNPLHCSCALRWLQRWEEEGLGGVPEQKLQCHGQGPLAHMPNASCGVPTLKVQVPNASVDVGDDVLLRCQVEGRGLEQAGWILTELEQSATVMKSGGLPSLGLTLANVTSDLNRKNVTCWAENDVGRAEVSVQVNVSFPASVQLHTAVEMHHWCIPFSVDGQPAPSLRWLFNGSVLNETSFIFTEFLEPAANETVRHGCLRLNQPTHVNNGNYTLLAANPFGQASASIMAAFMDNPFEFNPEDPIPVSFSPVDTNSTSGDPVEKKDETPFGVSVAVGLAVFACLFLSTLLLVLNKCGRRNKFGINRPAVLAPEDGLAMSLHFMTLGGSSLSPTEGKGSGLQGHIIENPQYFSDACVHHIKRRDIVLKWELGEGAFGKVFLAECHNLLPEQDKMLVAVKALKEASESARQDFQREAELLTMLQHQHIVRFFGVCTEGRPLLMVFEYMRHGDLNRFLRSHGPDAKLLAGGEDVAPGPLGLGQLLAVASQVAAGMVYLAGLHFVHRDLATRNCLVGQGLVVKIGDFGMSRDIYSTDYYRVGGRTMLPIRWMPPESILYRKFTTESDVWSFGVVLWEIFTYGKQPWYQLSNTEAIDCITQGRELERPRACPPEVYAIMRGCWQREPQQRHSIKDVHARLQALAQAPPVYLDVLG

Cc1cc(-n2c(=O)[nH]c(=O)n(C)c2=O)ccc1Oc1ccc(S(=O)(=O)C(F)(F)F)cc1 [ACD855, Toltrazuril-sulfone]
effect on Vmax(app) of TrkA (full-length TrkA-HA): significantly increase | effect on scopolamine-induced memory impairment (time spent in bright compartment) (C57BL/6J mice; 3 or 10 mg/kg s.c. once daily for four days, scopolamine 0.3 mg/kg): significantly attenuate | effect of ANA-12 on compound's reversal of scopolamine-induced memory impairment (C57BL/6J mice; ANA-12 0.5 mg/kg s.c.): blocked by ANA-12 | effect on MK-801-induced memory impairment (C57BL/6J mice; MK-801 0.3 mg/kg): ameliorate | effect of combined administration with physostigmine on scopolamine-induced memory impairment (C57BL/6J mice; low dose of compound plus physostigmine 0.025 mg/kg): significantly reverse | effect of low dose alone on scopolamine-induced memory impairment (C57BL/6J mice; low doses given by themselves, physostigmine 0.025 mg/kg): no significant effect | pro-cognitive effects and other behavioral parameters in naive animals (C57BL/6J mice; naïve young healthy animals): none of the two compounds had any pro-cognitive effects | time with novel object vs familiar object after scopolamine (Wistar rats): spent significantly more time with the novel object
